Experimental data taken from EP1200114B1, “PPAR DELTA INHIBITORS FOR THE TREATMENT OF CARDIOVASCULAR DISEASES” (priority 1999, dated 2001).
“Also recorded” adds a separate entry of the source.

Experiments:
parental THP-1 cells [1] = test: PMA-induced differentiation (adherence to culture dish) of parental THP-1 cells; format: cell-based, human; conditions: incubated with PMA and inhibitor
Method: (§1) Cells were treated overnight with 5ng/ml PMA and scored for differentiation (adherence to culture dish) and viability (trypan blue exclusion).
(§2) Parental and PPARδ anti-sense cells were incubated with PMA and an inhibitor of PKC activity (Bis) and two inhibitors of PLA2 activity (OBAA and mepacrine). These inhibitors were included at concentrations used in previous studies for specific inhibition.

[2] = tested on: PPARδ anti-sense cell line; test: Viability (trypan blue exclusion) of PPARδ anti-sense cells treated with PMA; format: cell-based, human; conditions: incubated with PMA and inhibitor
Method: as §1, §2

parental THP-1 cells [3] = tested on: parental THP-1 cells
Method: as §1, §2

THP-1 cells = test: THP-1 foam cell model (PMA-activated cells, Oil Red O lipid staining); format: cell-based, human; conditions: for lipid accumulation: PMA-treated THP-1 cells, Oil Red O staining; for foam cell formation: adherent PMA-treated THP-1 cells
Description: Treatment was continued for 3 days and the cells fixed in 0.66M paraformaldehyde, stained with a saturating solution of Oil Red O and then counterstained with haematoxylin.

LNCaP = test: Prostate cell growth, colorimetric cell number assay; format: cell-based; conditions: low concentrations, 7 days
Method: (§3) Cell lines were plated at 2,500 cells per well in a 24-well plate and cultured in RPMI containing 5% dextran-coated charcoal-treated FCS. Increasing concentrations of Compound F or LG 100268 were included in the culture medium and the cultures were maintained for 7 days with changes of drugs and medium every 48 hours.

PNT1A = test: as above; format: cell-based; conditions: low concentrations, 7 days
Method: as §3

ApoE = ApoE mRNA by TAQMAN in THP-1 cells; format: cell-based, human; conditions: parental THP-1 cells treated with PMA and linoleic acid
Method: Total RNA was prepared from parental THP-1 cells treated with PMA (THP-1), or PMA and linoleic acid (THP-1+FA), and untreated PPARδ over-expressing cell line (DELTA). cDNA was prepared from these RNA samples and the cDNA was analysed for ApoE sequences using TAQMAN procedures. The result shown is relative expression normalised for β-actin expression and the error bars represent the standard deviation in duplicate samples.

| Compound | differentiation of parental THP-1 cells (parental THP-1 cells [1]) | PMA-induced "death" of the PPARδ anti-sense cell line [2] | lipid accumulation (THP-1 cells) | foam cell formation (THP-1 cells) | also measured |
| --- | --- | --- | --- | --- | --- |
| CCN(CC)CCCC(C)Nc1c2ccc(Cl)cc2nc2ccc(OC)cc12 (centres unmarked) [Mepacrine, 6-chloro-9-[(4-diethylamino)-1-methylbutyl]amino-2-methoxy-acridine] | prevented | did not block | – | – | toxicity in the parental cells (parental THP-1 cells [3]): sign of toxicity |
| CN(C)CCCn1cc(C2=C(c3c[nH]c4ccccc34)C(=O)NC2=O)c2ccccc21 [Bis, bisindoylmaleamide I] | prevented | did not block | – | – | – |
| CCCCCCCCCCCCCCCCCCc1ccc(C(=O)C=CC(=O)O)cc1 [OBAA, 3-(4-octadecyl)benzoylacrylic acid] | prevented | did not block | – | – | – |
| Cc1cc2c(cc1C1(c3ccc(C(=O)O)cn3)CC1)C(C)(C)CCC2(C)C [LG 100268] | – | – | Increased lipid accumulation | promoted foam cell formation in co-operation with fatty acids | growth stimulated (LNCaP): also seen; growth stimulated (PNT1A): also seen |
| Cc1cccc(Nc2cc(Cl)nc(SCC(=O)O)n2)c1C [Wy 14,643] | – | – | – | no effect | – |
| CCCCC/C=C\C/C=C\CCCCCCCC(=O)O [linoleic acid] | – | – | Increased lipid accumulation; also recorded: leads to the accumulation of lipid droplets in the cytoplasm | – | apoE mRNA levels (ApoE): reduced |
